Assay: pKa and color of the azo dyes on dissociation of a proton
Assay type: physicochemical
Excerpt: Therefore, because the components (B) and (C) coexist with the component (A) in the powder hair dye composition of the present invention, a proton of the component (A) is dissociated and a color of the composition becomes close to one after hair dyeing.

Structure (SMILES)	color assumed by dissociation of a proton
NS(=O)(=O)c1ccc2nsc(/N=N/c3ccc(O)c(Cl)c3)c2c1 [(A-2), HC Red 18]	blue color
Cn1nccc1/N=N/c1ccc(O)c(Cl)c1 [(A-3), HC Yellow 16]	yellow color
CSc1nsc(/N=N/c2ccc(O)c(Cl)c2)n1 [(A-1), HC Blue 18]	red color
